Activity calls are given as the source filed them. The calls are words filed in the database; no cut-off is given here.
Columns and labels:
Danio rerio [1] = species: Danio rerio; experiment: Toxicity in wild type zebrafish embryos assessed as growth retardation at 10 ug/ml treated for 96 hrs post fertilization starting from 6 hrs post fertilization by inverted microscopic analysis relative to control; type: organism-based; settings: in vivo
Danio rerio [2] = species: Danio rerio; experiment: Toxicity in wild type zebrafish embryos assessed as notochord at 20 ug/ml treated for 96 hrs post fertilization starting from 6 hrs post fertilization by inverted microscopic analysis relative to control; type: organism-based; settings: in vivo
Danio rerio [3] = species: Danio rerio; experiment: Toxicity in wild type zebrafish embryos assessed as blood circulation at 20 ug/ml treated for 96 hrs post fertilization starting from 6 hrs post fertilization by inverted microscopic analysis relative to control; type: organism-based; settings: in vivo
Danio rerio [4] = species: Danio rerio; experiment: Toxicity in wild type zebrafish embryos assessed as heart beat at 5 ug/ml treated for 96 hrs post fertilization starting from 6 hrs post fertilization by inverted microscopic analysis relative to control; type: organism-based; settings: in vivo
Danio rerio [5] = species: Danio rerio; experiment: Toxicity in wild type zebrafish embryos assessed as blood circulation at 10 ug/ml treated for 96 hrs post fertilization starting from 6 hrs post fertilization by inverted microscopic analysis relative to control; type: organism-based; settings: in vivo
Melanocyte [6] = experiment: Anti-melanogenic activity in wild type zebrafish embryo melanocytes assessed as decrease in pigmentation at 2.5 mg/ml treated for 72 hrs post fertilization starting from 6 to 24 hrs post fertilization; type: functional, cell-based; settings: Danio rerio
Melanocyte [7] = experiment: Cytotoxicity against wild type zebrafish embryo melanocytes assessed as change in morphology; type: cell-based, Danio rerio
Danio rerio [8] = species: Danio rerio; experiment: Toxicity in wild type zebrafish embryos assessed as blood circulation at 25 ug/ml treated for 96 hrs post fertilization starting from 6 hrs post fertilization by inverted microscopic analysis relative to control; type: organism-based; settings: in vivo
[9] = Toxicity in wild type zebrafish embryos assessed as dead embryo at 10 ug/ml treated for 96 hrs post fertilization starting from 6 hrs post fertilization by inverted microscopic analysis relative to control; type: organism-based, Danio rerio; settings: in vivo, read-out: Activity
Danio rerio [10] = species: Danio rerio; experiment: Toxicity in wild type zebrafish embryos assessed as otoliths at 10 ug/ml treated for 96 hrs post fertilization starting from 6 hrs post fertilization by inverted microscopic analysis relative to control; type: organism-based; settings: in vivo
Danio rerio [11] = species: Danio rerio; experiment: Toxicity in wild type zebrafish embryos assessed as normal embryo at 50 ug/ml treated for 96 hrs post fertilization starting from 6 hrs post fertilization by inverted microscopic analysis relative to control; type: organism-based; settings: in vivo
Melanocyte [12] = experiment: Cytotoxicity against wild type zebrafish embryo melanocytes assessed as small and rounded cells at 12.5 ug/ml treated for 72 hrs post fertilization starting from 6 to 24 hrs post fertilization; type: cell-based, Danio rerio
Tyrosinase (Danio rerio) = target: T1, Tyrosinase (Danio rerio) (UniProt A0A8M1PAD4); experiment: Inhibition of zebrafish embryo tyrosinase assessed as melanin production at 20 ug/ml after 48 hrs relative to control; values are per cent of control
T1 sequence (whole entry): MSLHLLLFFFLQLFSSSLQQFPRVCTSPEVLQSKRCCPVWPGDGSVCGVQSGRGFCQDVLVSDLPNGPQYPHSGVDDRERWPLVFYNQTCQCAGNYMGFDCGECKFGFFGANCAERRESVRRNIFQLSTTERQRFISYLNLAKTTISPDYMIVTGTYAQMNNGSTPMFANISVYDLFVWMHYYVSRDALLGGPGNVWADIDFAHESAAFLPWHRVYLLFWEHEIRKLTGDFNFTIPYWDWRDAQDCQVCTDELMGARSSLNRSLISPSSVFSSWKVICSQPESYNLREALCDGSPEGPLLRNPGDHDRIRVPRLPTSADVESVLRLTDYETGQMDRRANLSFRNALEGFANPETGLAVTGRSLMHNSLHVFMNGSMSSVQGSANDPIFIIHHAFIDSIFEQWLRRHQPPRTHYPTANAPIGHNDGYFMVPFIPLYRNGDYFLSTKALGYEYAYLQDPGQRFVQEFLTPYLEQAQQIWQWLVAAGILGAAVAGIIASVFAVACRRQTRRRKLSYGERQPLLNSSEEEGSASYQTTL

Melanocyte [13] = experiment: Cytotoxicity against wild type zebrafish embryo melanocytes assessed as number of melanocyte at 2.5 mg/ml treated for 72 hrs post fertilization starting from 6 to 24 hrs post fertilization; type: cell-based, Danio rerio
Danio rerio [14] = species: Danio rerio; experiment: Toxicity in wild type zebrafish embryos assessed as blood circulation at 5 ug/ml treated for 96 hrs post fertilization starting from 6 hrs post fertilization by inverted microscopic analysis relative to control; type: organism-based; settings: in vivo
Danio rerio [15] = species: Danio rerio; experiment: Anti-melanogenic activity in wild type zebrafish 24 hrs post fertilization embryos assessed as decrease in body pigmentation at 5 to 25 ug/ml after 48 hrs; type: functional, organism-based
Danio rerio [16] = species: Danio rerio; experiment: Toxicity in wild type zebrafish embryos assessed as heart beat at 50 ug/ml treated for 96 hrs post fertilization starting from 6 hrs post fertilization by inverted microscopic analysis relative to control; type: organism-based; settings: in vivo
Danio rerio [17] = species: Danio rerio; experiment: Toxicity in wild type zebrafish embryos assessed as growth retardation at 25 ug/ml treated for 96 hrs post fertilization starting from 6 hrs post fertilization by inverted microscopic analysis relative to control; type: organism-based; settings: in vivo
Danio rerio [18] = species: Danio rerio; experiment: Toxicity in wild type zebrafish embryos assessed as teratogenic embryo at 20 ug/ml treated for 96 hrs post fertilization starting from 6 hrs post fertilization by inverted microscopic analysis relative to control; type: organism-based; settings: in vivo
Danio rerio [19] = species: Danio rerio; experiment: Toxicity in wild type zebrafish embryos assessed as teratogenic embryo at 5 ug/ml treated for 96 hrs post fertilization starting from 6 hrs post fertilization by inverted microscopic analysis relative to control; type: organism-based; settings: in vivo
Danio rerio [20] = species: Danio rerio; experiment: Toxicity in wild type zebrafish embryos assessed as growth retardation at 20 ug/ml treated for 96 hrs post fertilization starting from 6 hrs post fertilization by inverted microscopic analysis relative to control; type: organism-based; settings: in vivo
Danio rerio [21] = species: Danio rerio; experiment: Toxicity in wild type zebrafish embryos assessed as unhatched embryo at 25 ug/ml treated for 96 hrs post fertilization starting from 6 hrs post fertilization by inverted microscopic analysis relative to control; type: organism-based; settings: in vivo
Danio rerio [22] = species: Danio rerio; experiment: Toxicity in wild type zebrafish embryos assessed as otoliths at 5 ug/ml treated for 96 hrs post fertilization starting from 6 hrs post fertilization by inverted microscopic analysis relative to control; type: organism-based; settings: in vivo
Danio rerio [23] = species: Danio rerio; experiment: Toxicity in wild type zebrafish embryos assessed as unhatched embryo at 5 ug/ml treated for 96 hrs post fertilization starting from 6 hrs post fertilization by inverted microscopic analysis relative to control; type: organism-based; settings: in vivo
Danio rerio [24] = species: Danio rerio; experiment: Toxicity in wild type zebrafish embryos assessed as notochord at 5 ug/ml treated for 96 hrs post fertilization starting from 6 hrs post fertilization by inverted microscopic analysis relative to control; type: organism-based; settings: in vivo
Danio rerio [25] = species: Danio rerio; experiment: Toxicity in wild type zebrafish embryos assessed as skeletal deformities at 10 ug/ml treated for 96 hrs post fertilization starting from 6 hrs post fertilization by inverted microscopic analysis relative to control; type: organism-based; settings: in vivo
Danio rerio [26] = species: Danio rerio; experiment: Toxicity in wild type zebrafish embryos assessed as unhatched embryo at 20 ug/ml treated for 96 hrs post fertilization starting from 6 hrs post fertilization by inverted microscopic analysis relative to control; type: organism-based; settings: in vivo
Danio rerio [27] = species: Danio rerio; experiment: Toxicity in wild type zebrafish embryos assessed as normal embryo at 25 ug/ml treated for 96 hrs post fertilization starting from 6 hrs post fertilization by inverted microscopic analysis relative to control; type: organism-based; settings: in vivo
Danio rerio [28] = experiment: Toxicity in wild type zebrafish embryos assessed as yolk edema at 10 ug/ml treated for 96 hrs post fertilization starting from 6 hrs post fertilization by inverted microscopic analysis relative to control; type: organism-based; settings: in vivo
Melanocyte [29] = experiment: Cytotoxicity against wild type zebrafish embryo melanocytes assessed as barely visible cells at 12.5 ug/ml treated for 72 hrs post fertilization starting from 6 to 24 hrs post fertilization; type: cell-based, Danio rerio
Danio rerio [30] = species: Danio rerio; experiment: Toxicity in wild type zebrafish embryos assessed as skeletal deformities at 25 ug/ml treated for 96 hrs post fertilization starting from 6 hrs post fertilization by inverted microscopic analysis relative to control; type: organism-based; settings: in vivo

SMILES | Activity (Danio rerio [1]) [%] | Activity (Danio rerio [2]) [%] | Activity (Danio rerio [3]) [%] | Activity (Danio rerio [4]) [%] | Activity (Danio rerio [5]) [%] | Activity (Melanocyte [6]) | Activity (Melanocyte [7]) | Activity (Danio rerio [8]) [%] | mortality at 10 ug/ml [9] [%] | Activity (Danio rerio [10]) [%] | Activity (Danio rerio [11]) [%] | Activity (Melanocyte [12]) | Activity (Melanocyte [13]) | Activity (Danio rerio [14]) [%] | Activity (Danio rerio [15]) | Activity (Danio rerio [17]) [%] | Activity (Danio rerio [18]) [%] | Activity (Danio rerio [21]) [%] | Activity (Danio rerio [27]) [%] | Activity (Melanocyte [29]) | further results
O=c1cc(-c2ccccc2)c2ccc(O)cc2o1 | 0 | 0 | 0 | 0 | 0 | Active | Dose-dependent effect and Tde | 0 | 0 | 0 | 100 | Non-Toxic | Non-Toxic | 0 | Active | 0 | 0 | 0 | 100 | Non-Toxic | melanin content % of control (Tyrosinase (Danio rerio)): 61%; Activity (Danio rerio [16]): 0%; Activity (Danio rerio [19]): 0%; Activity (Danio rerio [20]): 0%; Activity (Danio rerio [22]): 0%; Activity (Danio rerio [23]): 0%; Activity (Danio rerio [24]): 0%; Activity (Danio rerio [25]): 0%; Activity (Danio rerio [26]): 0%; Activity (Danio rerio [28]): 0%; Activity (Danio rerio [30]): 0%
O=c1cc(CO)occ1O [KOJIC ACID] |  |  |  |  |  | Active | Dose-dependent effect and Tde | 0 |  |  |  | Non-Toxic | Non-Toxic |  |  | 0 |  | 0 | 100 | Non-Toxic | Activity (Danio rerio [30]): 0%
Oc1ccc(O)cc1 [HYDROQUINONE] | 80 | 0 | 100 | 0 | 90 |  | Dose-dependent effect and Tde | 100 | 63.3 | 80 | 0 | Non-Toxic |  | 0 | Active | 100 | 30 | 100 | 0 | Non-Toxic | Activity (Danio rerio [19]): 100%; Activity (Danio rerio [20]): 100%; Activity (Danio rerio [22]): 0%; Activity (Danio rerio [23]): 0%; Activity (Danio rerio [24]): 0%; Activity (Danio rerio [25]): 90%; Activity (Danio rerio [26]): 100%; Activity (Danio rerio [28]): 0%
O=c1cc(-c2ccccc2)c2c(O)cc(O)cc2o1 | 0 | 0 | 0 | 0 | 0 | Active | Dose-dependent effect and Tde | 0 | 0 | 0 | 75 | Non-Toxic | Non-Toxic | 0 | Active | 0 | 0 | 0 | 100 | Non-Toxic | melanin content % of control (Tyrosinase (Danio rerio)): 37%; Activity (Danio rerio [16]): 0%; Activity (Danio rerio [19]): 0%; Activity (Danio rerio [20]): 0%; Activity (Danio rerio [22]): 0%; Activity (Danio rerio [23]): 0%; Activity (Danio rerio [24]): 0%; Activity (Danio rerio [25]): 0%; Activity (Danio rerio [26]): 0%; Activity (Danio rerio [28]): 0%; Activity (Danio rerio [30]): 0%

From ChEMBL document CHEMBL4177616, “Potent anti-melanogenic activity and favorable toxicity profile of selected 4-phenyl hydroxycoumarins in the zebrafish model and the computational molecular modeling studies” (Bioorg Med Chem, 2017)
